Laboratory results reported in patent publication US8309602B2, “Multi-substituted diarylanilines as non-nucleoside HIV reverse transcriptase inhibitors, and preparation and use thereof” (Institute of Pharmacology and Toxicology, priority 2007, dated 2012).
In brackets after ≈: the same amount, converted by molar mass. Where two headings read alike, the source gives them in different places.

Tests used:
Format in all cases: cell-based
[1] = Cytotoxicity test of compound in H9 cells; settings: human, H9 cell line, uninfected cells
Method: (§1) Reference document (J. Med. Chem. 2004, 47, 756-760). Lymphocyte H9 was cultured at 37° C. in culture medium 1640 and 5% CO2. […] The cultured H9 cells were divided into two parts, wherein one of the parts was infected with HIV virus (IIIB) (m.i.o. 0.1-0.01 infectious Units/cell), which was used for assaying activity. The other part of the cells was not added with viruses but only with culture medium, which was used for assaying toxicity. The two parts of the cells were cultured under completely identical conditions (37° C., 5% CO2) for 4 hours, washed with fresh culture medium for three times, and then were added respectively to the prepared tested samples of different concentrations or to culture medium (the latter was positive infection control or negative drug control), and meanwhile AZT was used as positive drug control. All these cells were cultured at 37° C. in 5% CO2 for 4 days. […] The part of the cells without viruses added were tested by the method of counting cells to assay the toxicity of the sample, expressed using CC50. […] Reference documents (Jiang, S., et al. Antimicrob. Agents Chemother. 2004, 48, 4349-4359). In 96 wells culture plate, 50 μl of different concentrations of compound solutions were mixed with PBS in the same volume, incubated at 37° C. for 30 minutes, added with 100 μL TM-2 (or H9) cell (1×10^5/mL, RPIM 1640 culture medium containing 10% serum), mixed uniformly, and incubated at 37° C. overnight.

HIV virus (IIIB) = assay: Assay of anti-HIV activity (H9 cell model), P24 antigen ELISA; settings: for SI (CC50/EC50): H9 cell line, ratio of cytotoxicity CC50 to activity EC50; for EC50: H9 cell line infected with HIV (IIIB), 50% inhibition of virus replication
Method: Reference document (J. Med. Chem. 2004, 47, 756-760). Lymphocyte H9 was cultured at 37° C. in culture medium 1640 and 5% CO2. The tested compound was initially dissolved in DMSO, and then diluted with culture medium to conventional screening concentration: 100, 20, 4, 0.8 μg/mL. The cultured H9 cells were divided into two parts, wherein one of the parts was infected with HIV virus (IIIB) (m.i.o. 0.1-0.01 infectious Units/cell), which was used for assaying activity. The other part of the cells was not added with viruses but only with culture medium, which was used for assaying toxicity. The two parts of the cells were cultured under completely identical conditions (37° C., 5% CO2) for 4 hours, washed with fresh culture medium for three times, and then were added respectively to the prepared tested samples of different concentrations or to culture medium (the latter was positive infection control or negative drug control), and meanwhile AZT was used as positive drug control. All these cells were cultured at 37° C. in 5% CO2 for 4 days. In the fourth day, the cell membranes of the cells infected by viruses were removed, and the cytosol was tested by P24 antigen ELISA method to assay the activity of the sample, expressed using EC50. EC50 was an effective concentration when virus replication was inhibited by 50%. The part of the cells without viruses added were tested by the method of counting cells to assay the toxicity of the sample, expressed using CC50. CC50 was a concentration when growth cells were killed by 50%.

[2] = Cytotoxicity test of compound in MT-2 cells (XTT); settings: human, MT-2 cell line, uninfected cells
Method: (§2) Reference documents (Jiang, S., et al. Antimicrob. Agents Chemother. 2004, 48, 4349-4359). In 96 wells culture plate, 50 μl of different concentrations of compound solutions were mixed with PBS in the same volume, incubated at 37° C. for 30 minutes, added with 100 μL TM-2 (or H9) cell (1×10^5/mL, RPIM 1640 culture medium containing 10% serum), mixed uniformly, and incubated at 37° C. overnight.

HIV-1IIIB virus strains = assay: Assay of anti-HIV activity (MT-2 cell model), p24 antigen ELISA; settings: for EC50: MT-2 cell line infected with HIV-1IIIB, 50% virus inhibition; for SI (CC50/EC50): MT-2 cell line, ratio of cytotoxicity CC50 to activity EC50
Method: Reference documents (Jiang, S., et al. Antimicrob. Agents Chemother. 2004, 48, 4349-4359). In 96 wells culture plate, 50 μl of different concentrations of compound solutions were mixed with HIV-1IIIB virus strains (100 TCID50) in the same volume, incubated at 37° C. for 30 minutes, added with 100 μl TM-2 cell (1×10^5/mL, RPIM 1640 culture medium containing 10% serum), mixed uniformly, and incubated at 37° C. overnight. In the second day, 150 μl supernatant was sucked off and supplemented with fresh culture medium in the same volume, the compound solutions were incubated continuously at 37° C. for 3 days, and the cell pathology effect (CPE) was recorded in the fourth day. Then 100 μl cultured supernatant was sucked up to determine p24 antigen therein with 5% Triton X-100 lytic virus particles by using ELISA method. Briefly, HIVIG (2 μg/ml) was used to encapsulate enzyme standard plate, sealed with 1% fat-free milk, and then added with virus lytic solution, incubated at 37° C. for 60 minutes. After the plate was washed completely, anti-p24 monoclonal antibody-183-12H-5C, goat anti-mouse antibody labeled with biotin and horse radish peroxidase labeled with avidin were added. Then the compounds were developed with TMB, and the light density was tested at 450 nm. The virus inhibition concentration of 50% (EC50) of the compounds was calculated by using CalcuSyn software.

H9 cells = assay: Cytotoxicity test of compound in H9 cells; settings: H9 cell line, uninfected cells
Method: as §1

MT-2 cells = assay: Cytotoxicity test of compound in MT-2 cells (XTT); settings: MT-2 cell line, uninfected cells
Method: as §2

[3] = Human immunodeficiency virus 1, read-out: EC50
[4] = Human immunodeficiency virus 1, MT2, read-out: EC50

| SMILES | CC50 at 4 days [1] [µg/mL] | SI (CC50/EC50) (HIV virus (IIIB)) | EC50 (HIV virus (IIIB); [3]) [µg/mL] | CC50 at 4 days [2] [µg/mL] | EC50 (HIV-1IIIB virus strains; [4]) [µg/mL] | SI (CC50/EC50) (HIV-1IIIB virus strains) | CC50 (H9 cells) [µg/mL] | EC50 (HIV virus (IIIB)) [µg/mL] | CC50 (MT-2 cells) [µg/mL] | EC50 (HIV-1IIIB virus strains) [µg/mL] | CC50 at 4 days ([1]; H9 lymphocyte cells) [µg/mL] | CC50 at 4 days ([2]; MT-2 cells) [µg/mL] |
| --- | --- | --- | --- | --- | --- | --- | --- | --- | --- | --- | --- | --- |
| Cc1cc(Br)cc(C)c1Oc1cc(Nc2ccc(C#N)cc2)c([N+](=O)[O-])cc1[N+](=O)[O-] [Compound I-1, N^1-(4′-cyanophenyl)-5-(2′,6′-dimethyl-4′-bromophenoxy)-2,4-dinitroaniline] | > 25 | >234 | 0.11 (≈ 0.228 µM) | > 100 | 0.14 (≈ 0.29 µM) | >714 |  |  |  |  |  |  |
| Cc1cccc(C)c1Oc1cc(Nc2ccc(C#N)cc2)c([N+](=O)[O-])cc1[N+](=O)[O-] [Compound I-2, N^1-(4′-cyanophenyl)-5-(2′,6′-dimethylphenoxy)-2,4-dinitroaniline] | > 25 | >113 | 0.22 (≈ 0.544 µM) | > 100 | 3.71 (≈ 9.17 µM) | >27 |  |  |  |  |  |  |
| Cc1cc(C)c(Nc2cc(Nc3ccc(C#N)cc3)c([N+](=O)[O-])cc2[N+](=O)[O-])c(C)c1 [Compound I-3, N^1-(4′-cyanophenyl)-2,4-dinitro-N^5-(2′,4′,6′-trimethylphenyl)-benzene-1,5-diamine] | > 25 | >455 | 0.055 (≈ 0.132 µM) | > 100 | 0.18 (≈ 0.431 µM) | >556 |  |  |  |  |  |  |
| CC(=O)ON(c1cc(Nc2ccc(C#N)cc2)c([N+](=O)[O-])cc1[N+](=O)[O-])c1c(C)cc(C)cc1C [Compound I-4, N^1-(4′-cyanophenyl)-2,4-dinitro-[N^5-acetoxy-N^5-(2′,4′,6′-trimethylphenyl)]benzene-1,5-diamine] |  | >14.15 |  |  |  | 23.45 | >25 | 1.77 (≈ 3.72 µM) | 61.21 (≈ 129 µM) | 2.61 (≈ 5.49 µM) |  |  |
| Cc1cc(Br)cc(C)c1Oc1cc(Nc2ccc(C#N)cc2)c(N)cc1[N+](=O)[O-] [Compound I-5, 4-(4′-Bromo-2′,6′-dimethylphenoxy)-N^2-(4′-cyanophenyl)-5-nitrobenzene-1,2-diamine] |  | >1000 | < 0.025 |  | < 0.02 | >3054 |  |  |  |  | > 25 | 61.1 (≈ 135 µM) |
| Cc1cc(C#N)cc(C)c1Oc1ccc([N+](=O)[O-])c(Nc2ccc(C#N)cc2)c1 [Compound I-6, N^1-(4′-cyanophenyl)-5-(4′-cyano-2′,6′-dimethylphenoxy)-2-nitroaniline] |  | >312 | 0.08 (≈ 0.208 µM) |  | 6.63 (≈ 17.2 µM) | 8.53 |  |  |  |  | > 25 | 56.5 (≈ 147 µM) |
| Cc1cccc(C)c1Oc1ccc([N+](=O)[O-])c(Nc2ccc(C#N)cc2)c1 [Compound I-7, N^1-(4′-cyanophenyl)-5-(2′,6′-dimethylphenoxy)-2-nitroaniline] |  | >33 | 0.76 (≈ 2.11 µM) |  | 1.18 (≈ 3.28 µM) | >85 |  |  |  |  | > 25 | > 100 |
| Cc1cc(Br)cc(C)c1Oc1cc(Nc2ccc(C#N)cc2)c(N)cc1N [Compound I-8, 5-(4′-Bromo-2′,6′-dimethylphenoxy)-N^1-(4′-cyanophenyl)benzene-1,2,4-triamine] |  | 239 | 0.068 (≈ 0.161 µM) |  | 0.13 (≈ 0.307 µM) | 132 |  |  |  |  | 16.2 (≈ 38.4 µM) | 17.2 (≈ 40.6 µM) |
| Cc1cc(C#N)cc(C)c1Oc1cc(Nc2ccc(C#N)cc2)c(N)cc1N [Compound I-10, N^1-(4′-cyanophenyl)-5-(4′-Cyano-2′,6′-dimethylphenoxy)benzene-1,2,4-triamine] |  | >820 | < 0.025 |  | 0.008 (≈ 0.0217 µM) | 2425 |  |  |  |  | 20.5 (≈ 55.5 µM) | 19.4 (≈ 52.5 µM) |
| Cc1cc(C#N)cc(C)c1Oc1cc(Nc2ccc(C#N)cc2)c(N)cc1[N+](=O)[O-] [Compound I-11, 5-(4′-Cyano-2′,6′-dimethylphenoxy)-N^1-(4′-cyanophenyl)-4-nitrobenzene-1,2-diamine] |  | >1000 | < 0.025 |  | 0.013 (≈ 0.0325 µM) | 4715 |  |  |  |  | > 25 | 61.3 (≈ 153 µM) |
| Cc1cc(Br)cc(C)c1Oc1ccc(N)c(Nc2ccc(C#N)cc2)c1 [Compound I-13, 4-(4′-Bromo-2′,6′-dimethylphenoxy)-N^2-(4′-cyanophenyl)benzene-1,2-diamine] |  | 128 | 0.134 (≈ 0.328 µM) |  | 0.16 (≈ 0.392 µM) | 91 |  |  |  |  | 17.2 (≈ 42.1 µM) | 14.5 (≈ 35.5 µM) |
| Cc1cc(C)c(Oc2cc(Nc3ccc(C#N)cc3)c([N+](=O)[O-])cc2[N+](=O)[O-])c(C)c1 [Compound I-14, N^1-(4′-cyanophenyl)-5-(2′,4′,6′-trimethylphenoxy)-2,4-dinitroaniline] | > 25 | >174 | 0.144 (≈ 0.344 µM) | 28.8 (≈ 68.7 µM) | 0.7 (≈ 1.67 µM) | 41.09 |  |  |  |  |  |  |
